Test results as given in article PMC9068772, “Discovery of first-in-class nanomolar inhibitors of heptosyltransferase I reveals a new aminoglycoside target and potential alternative mechanism of action” (Scientific Reports, 2022).
“And” between values parts separate entries of the source, which are not always exact repeats. Identical values can stand only once. “Also recorded” adds a separate entry of the source.

What was measured:
[1] = target: T1, Heptosyltransferase I (HepI) WT (Escherichia coli, UniProt P24173); experiment: HepI inhibition, ADP/NADH coupled assay (wild type); format: biochemical, E. coli K12; conditions: for kcat: HepI WT in presence of inhibitor; for Ki: 10 μM ODLA, inhibitor varied; for Type of inhibition with ODLA: excess ADPH, ODLA varied, Lineweaver–Burk, Dixon, Cornish-Bowden; for Type of inhibition against ADPH: excess ODLA, ADPH varied; for ΔG (kcal/mol) Exp: Gibbs equation with Ki as equilibrium constant
T1 construct: made in house; host or cells: E. coli One Shot BL-21-AI
Description: (§1) As previously reported[11],[14],[15], an ADP/NADH coupled assay was used to monitor HepI activity by monitoring the absorbance change at 340 nm at 37 °C on a Cary Bio 100 UV–Vis Spectrometer. Under normal conditions, the assay buffer was composed of 50 mM HEPES, 50 mM KCl, 10 mM MgCl2, pH 7.5. The coupled enzyme reaction additionally contained 100 μM phosphoenolpyruvate, 100 μM NADH, 100 μM dithiothreitol (DTT) and 0.05 U/μL of both pyruvate kinase and lactate dehydrogenase. 100 μM ADPH was used when ODLA concentration was varied and 100 μM ODLA was used when ADPH was varied. Once a stable baseline was established (~ 5 min), the reaction was initiated by addition of HepI to a final concentration of 50 nM or 100 nM (for high and lower substrate concentrations respectively) and all reported reaction rates are after background subtraction. When running 12 samples at once, plastic cuvette stirs and a repeat pipettor was used to inject 200 μL enzyme. Inhibition of HepI was monitored using the same ADP/NADH coupled assay, all conditions of the assay were the same as previously described unless otherwise stated. Ki values for each of the compounds were determined by varying compound final concentration from 100 μm to 10 nm, and a final concentration of 10 μM ODLA. Competition assays against ADPH were done with excess ODLA (100 μM) and varying ADPH from 2–0.25 μM. Competition assays against ODLA were done with excess ADPH (100 μM) and varying ODLA from 2–0.25 μM. Reactions were started with addition of enzyme and inhibitor was varied from 30–0.01 μM. Kinetics were fit to Lineweaver-Burke (Eq. 1), competitive (Eq. 2), non-competitive (Eq. 3), mixed (Eq. 4), Dixon (Eq. 5), or Cornish-Bowden (Eq. 6) models. All fitting and plotting was done through MATLAB R2018A.1 1/V1/[S]=KM/Vmax[S]+1/Vmax 2 V[S]=Vmax[S]/KM1+[I]/Ki+[S] 3 V[S]=Vmax[S]/1+([I]/Ki)/KM+[S] 4 V[S]=Vmax[S]/KM(1+[I]/Ki)+[S](1+[I]/αKi) 5 1/V[I]=KM1+I/Ki+[S]1+I/αKi/Vmax[S] 6 [S]/V[I]=KM1+I/Ki+[S]1+I/αKi/Vmax

[2] = target: T2, HepI R60A (Escherichia coli, UniProt P24173, R60A); experiment: HepI inhibition, ADP/NADH coupled assay (R60A mutant); format: biochemical, E. coli K12; conditions: for ΔΔG (kcal/mol) Exp: Arg60Ala relative to WT; for ΔG (kcal/mol) Exp: Arg60Ala, from Ki; for kcat: HepI R60A in presence of inhibitor
T2 construct: made in house; host or cells: E. coli One Shot BL-21-AI (stated for HepI in general)
Description: as §1

[3] = target: T3, HepI R61A (Escherichia coli, UniProt P24173, R61A); experiment: HepI inhibition, ADP/NADH coupled assay (R61A mutant); format: biochemical, E. coli K12
T3 construct: made in house; host or cells: E. coli One Shot BL-21-AI (stated for HepI in general)
Description: as §1

[4] = target: T4, HepI R63A (Escherichia coli, UniProt P24173, R63A); experiment: HepI inhibition, ADP/NADH coupled assay (R63A mutant); format: biochemical, E. coli K12
T4 construct: made in house; host or cells: E. coli One Shot BL-21-AI (stated for HepI in general)
Description: as §1

[5] = target: T5, HepI K64A (Escherichia coli, UniProt P24173, K64A); experiment: HepI inhibition, ADP/NADH coupled assay (K64A mutant); format: biochemical, E. coli K12
T5 construct: made in house; host or cells: E. coli One Shot BL-21-AI (stated for HepI in general)
Description: as §1

[6] = target: T6, HepI (Escherichia coli, UniProt P24173); experiment: Intrinsic tryptophan fluorescence of HepI; format: binding, E. coli K12; conditions: for Blue shift of HepI tryptophan emission λmax: HepI plus ligand alone, vs apo; for Blue shift of HepI tryptophan emission λmax with ODLA and inhibitor: inhibitor added to HepI•ODLA complex
T6 construct: made in house; host or cells: E. coli One Shot BL-21-AI
Description: Fluorescence spectra were measured in triplicate at room temperature using 200 μL samples containing 1 μm HepI, in a 10 mm HEPES, 50 mm KCl, and 10 mm MgCl2, pH = 7.5 buffer. Samples were contained in Starna 45-Q-3 cells (minimum volume 200 µL). Substrate and inhibitor concentrations were 100 μM. All measurements were taken using a Fluoromax-4 fluorometer with an excitation slit bandpass of 2 nm and an emission slit bandpass of 3 nm (λex = 290 nm, λem = 310–450 nm). The data was subtracted from blanks, normalized and fit to a lognormal distribution (Eq. 7)[36] to determine the emission maximum (λmax) with in house scripts written in MATLAB R2018A.7 Iλ=Imax·e^-ln2/ln^2ρ·ln^2(a-λ/a-λmax)

[7] = target: T7, HepI R120A (Escherichia coli, UniProt P24173, R120A); experiment: HepI inhibition, ADP/NADH coupled assay (R120A mutant); format: biochemical, E. coli K12
T7 construct: made in house; host or cells: E. coli One Shot BL-21-AI (stated for HepI in general)
Description: as §1

T1 sequence (P24173 whole entry): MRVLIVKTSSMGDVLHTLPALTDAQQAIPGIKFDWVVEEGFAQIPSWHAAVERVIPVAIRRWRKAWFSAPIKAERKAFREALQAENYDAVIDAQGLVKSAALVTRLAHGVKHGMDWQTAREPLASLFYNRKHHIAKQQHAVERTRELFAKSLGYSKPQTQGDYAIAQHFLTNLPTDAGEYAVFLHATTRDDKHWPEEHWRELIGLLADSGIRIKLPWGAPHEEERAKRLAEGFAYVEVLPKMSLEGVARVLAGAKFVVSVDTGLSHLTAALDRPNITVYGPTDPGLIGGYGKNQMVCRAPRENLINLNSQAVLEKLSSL
T6 sequence (P24173 whole entry): as above
T5 sequence (P24173 whole entry K64A): as the sequence (P24173 whole entry) above, with K64A counted along it
T3 sequence (P24173 whole entry R61A): as the sequence (P24173 whole entry) above, with R61A counted along it
T7 sequence (P24173 whole entry R120A): as the sequence (P24173 whole entry) above, with R120A counted along it
T4 sequence (P24173 whole entry R63A): as the sequence (P24173 whole entry) above, with R63A counted along it
T2 sequence (P24173 whole entry R60A): as the sequence (P24173 whole entry) above, with R60A counted along it

| Structure (SMILES) | kcat [1] [s⁻¹] | Ki ([1]; HepI WT) | Type of inhibition with ODLA ([1]; HepI WT) | Type of inhibition against ADPH ([1]; HepI WT) | ΔG (kcal/mol) Exp ([1]; HepI WT) [kcal/mol] | Ki [2] [µM] | ΔΔG (kcal/mol) Exp [2] [kcal/mol] | ΔG (kcal/mol) Exp [2] [kcal/mol] | kcat [2] [s⁻¹] | Blue shift of HepI tryptophan emission λmax [6] | Blue shift of HepI tryptophan emission λmax with ODLA and inhibitor [6] | further results |
| --- | --- | --- | --- | --- | --- | --- | --- | --- | --- | --- | --- | --- |
| [H]/N=C(/N)N[C@H]1[C@H](O)[C@@H](O)[C@H](O[C@@H]2O[C@@H](C)[C@](O)(C=O)[C@H]2O[C@@H]2O[C@@H](CO)[C@H](O)[C@@H](O)[C@@H]2NC)[C@@H](N/C(N)=N\[H])[C@@H]1O [Streptomycin] | 0.162 ± 0.008 | 0.595 ± 0.09 µM | Non-competitive | non-competitive | -8.5 ± 0.1 | 6.25 ± 5.43 | 1.4 ± 0.4 | -7.1 ± 0.4 | 0.149 ± 0.013 | no changes to the emission spectra | unperturbed | Ki relative to WT ([2]; HepI R60A vs WT): increased the Ki values an order of magnitude; Ki [3]: 7.89 ± 3.59 µM; ΔΔG (kcal/mol) Exp ([3]; Arg61Ala relative to WT): 1.5 ± 0.2 kcal/mol; ΔG (kcal/mol) Exp ([3]; Arg61Ala, from Ki): -7.0 ± 0.2 kcal/mol; kcat ([3]; HepI R61A in presence of inhibitor): 0.142 ± 0.031 s⁻¹; Ki relative to WT ([3]; HepI R61A vs WT): increased the Ki values an order of magnitude; Ki [4]: 6.66 ± 0.699 µM; ΔΔG (kcal/mol) Exp ([4]; Arg63Ala relative to WT): 1.4 ± 0.1 kcal/mol; ΔG (kcal/mol) Exp ([4]; Arg63Ala, from Ki): -7.1 ± 0.1 kcal/mol; kcat ([4]; HepI R63A in presence of inhibitor): 0.198 ± 0.024 s⁻¹; Ki relative to WT ([4]; HepI R63A vs WT): increased the Ki values an order of magnitude; Ki [5]: 5.76 ± 0.485 µM; kcat ([5]; HepI K64A in presence of inhibitor): 0.117 ± 0.009 s⁻¹; Ki relative to WT ([5]; HepI K64A vs WT): increased the Ki values an order of magnitude; ΔΔG (kcal/mol) Exp ([5]; Lys64Ala relative to WT): 1.3 ± 0.1 kcal/mol; ΔG (kcal/mol) Exp ([5]; Lys64Ala, from Ki): -7.1 ± 0.1 kcal/mol |
| NC[C@H]1O[C@H](O[C@H]2[C@H](O)[C@@H](O[C@H]3O[C@H](CO)[C@@H](O)[C@H](N)[C@H]3O)[C@H](N)C[C@@H]2N)[C@H](N)C[C@@H]1O [Tobramycin] | 0.15 ± 0.005 | 1.1 µM and 1.13 µM | Mixed competitive | uncompetitive | -8.1 ± 0.1 | 3.4 ± 0.631 | 0.7 ± 0.1 | -7.5 ± 0.1 | 0.111 ± 0.013 | did not alter the λmax | 6 nm | α value, mixed model of inhibition with ODLA ([1]; HepI WT): greater than one; Ki [7]: 0.422 ± 0.186 µM; ΔΔG (kcal/mol) Exp ([7]; Arg120Ala relative to WT): -0.6 ± 0.2 kcal/mol; ΔG (kcal/mol) Exp ([7]; Arg120Ala, from Ki): -8.7 ± 0.2 kcal/mol; Ki relative to WT ([7]; HepI R120A vs WT): ~ twofold tighter; also recorded: lowering of the inhibition constant |
